The structures appear in SMILES notation. Several values for one entry are separate records, joined by “and”; a condition that tells them apart may be missing. Equal entries are not always repeated. Where two headings read alike, the source gives them in different places.

Data set [1] has as its target purified PARP protein (Homo sapiens, UniProt P09874). The data set can be described thus: PARP enzyme inhibition assay. It is filed as biochemical.
For data set [2], the system named is A549 cells. Kind of data set: Cytotoxicity potentiation assay. It is filed as cell-based. To be noted: test compound 0.4 μM, ratio of IC50 of topotecan alone to IC50 of topotecan with test compound. Here is the method: A549 cells (ATCC, Rockville, Md.) were seeded into 96-well cell culture plates (Falcon brand, Fisher Scientific, Pittsburgh, Pa.) 16 to 24 hours before experimental manipulation. Cells were then treated with a test compound (or a combination of test compounds where indicated) each at a concentration of 0.4 μM for either 3 days or 5 days. At the end of treatments, relative cell number was determined either by MTT assay or SRB assay. For the MTT assay, 0.2 μg/μl of MTT (3-(4,5-dimethylthiazol-2-yl)-2,5-diphenyltetrazolium bromide) (Sigma Chemical Co., St. Louis, Mo.) was added to each well of a plate, and the plate was incubated in a cell-culture incubator for 4 hours. Metabolized MTT in each well was solubilized in 150 μl of DMSO (Sigma Chemical Co.) with shaking and quantified with a Wallac 1420 Victor plate reader (EG&G Wallac, Gaithersburg, Md.) at 540 nm. For the SRB assay, cells were fixed with 10% trichloroacetic acid (Sigma Chemical Co) for an hour at 4° C. After extensively washing, fixed cells were stained for 30 minutes with 0.4% sulforhodamine B (SRB, Sigma Chemical Co.) in 1% acetic acid (Sigma Chemical Co). Unbound SRB was washed away with 1% acetic acid. Then the cultures were air-dried, and dye was solubilized with 10 mM unbuffered Tris base (Sigma Chemical Co) with shaking. The bound dye was measured photometrically with the Wallac Victor plate reader at 515 nm. The ratio of the OD (optical density) value of a compound-treated culture to the OD value of a mock-treated culture, expressed in percentage, was used to quantify the cytotoxicity of a compound. […] To quantify the potentiation of the cytotoxicity of topotecan or temozolomide by test compounds, a dimensionless parameter PF50 is used and is defined as the ratio of the IC50 of topotecan or temozolomide alone to the IC50 of topotecan or temozolomide in combination with a test compound. For the compounds of the invention, PF50 values were determined by testing with topotecan.

The mark [3] stands for this setting: 20 nM purified PARP (5 nM for tight-binding inhibitors), 500 μM NAD+, 25° C., several values in one cell = repeat determinations, read-out: Inhibition Constant Ki.

Sequence of purified PARP protein (P09874 whole entry): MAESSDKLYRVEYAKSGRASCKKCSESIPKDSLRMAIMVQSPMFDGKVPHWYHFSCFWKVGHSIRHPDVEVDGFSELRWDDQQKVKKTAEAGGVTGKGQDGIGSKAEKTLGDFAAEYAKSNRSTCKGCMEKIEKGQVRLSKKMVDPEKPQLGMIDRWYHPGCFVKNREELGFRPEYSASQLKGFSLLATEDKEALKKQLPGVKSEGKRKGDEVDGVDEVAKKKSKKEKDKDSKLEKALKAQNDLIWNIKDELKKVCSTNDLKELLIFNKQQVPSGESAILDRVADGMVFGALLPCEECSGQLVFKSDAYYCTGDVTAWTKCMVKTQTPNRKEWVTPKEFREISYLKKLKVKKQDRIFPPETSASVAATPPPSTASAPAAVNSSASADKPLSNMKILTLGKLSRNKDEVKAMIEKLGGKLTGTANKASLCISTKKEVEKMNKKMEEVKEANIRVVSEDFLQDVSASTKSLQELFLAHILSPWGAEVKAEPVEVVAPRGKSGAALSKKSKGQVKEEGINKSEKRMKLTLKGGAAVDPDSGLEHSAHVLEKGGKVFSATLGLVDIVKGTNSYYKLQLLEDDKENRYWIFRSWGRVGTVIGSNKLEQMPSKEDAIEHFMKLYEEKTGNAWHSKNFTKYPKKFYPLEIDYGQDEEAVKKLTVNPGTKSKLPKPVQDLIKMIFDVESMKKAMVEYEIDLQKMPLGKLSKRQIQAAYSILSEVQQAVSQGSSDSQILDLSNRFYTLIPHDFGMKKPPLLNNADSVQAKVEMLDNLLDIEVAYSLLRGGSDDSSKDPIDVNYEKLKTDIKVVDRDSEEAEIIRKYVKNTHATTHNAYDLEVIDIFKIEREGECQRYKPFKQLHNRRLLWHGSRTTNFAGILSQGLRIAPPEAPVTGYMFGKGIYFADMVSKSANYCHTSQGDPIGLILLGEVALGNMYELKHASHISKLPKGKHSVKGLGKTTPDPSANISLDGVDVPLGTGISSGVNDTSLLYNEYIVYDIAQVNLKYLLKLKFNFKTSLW

As to `CC1C=CC(C)N1Cc1ccc(-c2nc3cccc4c3n2CCNC4=O)cc1` (racemic) [Example 243, 1-[4-(2,5-Dimethyl-2,5-dihydro-pyrrol-1-ylmethyl)-phenyl]-8,9-dihydro-7H-2,7,9a-triaza-benzo[cd]azulen-6-one], in data set [1] (setting [3]), the Ki was 8.9 nM. Moreover, the “Cytotoxicity Potentiation PF50” value in data set [2] worked out at 2.0.

`O=C1NCCn2c(-c3ccccc3)nc3cccc1c32` [Example 1, 1-Phenyl-8,9-dihydro-7H-2,7,9a-triaza-benzo[cd]azulen-6-one]: the “Cytotoxicity Potentiation PF50” value in data set [2] worked out at 1.5.

Consider `O=C1NCCn2c(-c3ccc(F)cc3)nc3cccc1c32` [Example 2, 1-(4-Fluoro-phenyl)-8,9-dihydro-7H-2,7,9a-triaza-benzo[cd]azulen-6-one], for which, in data set [1] (setting [3]), the Ki was 8 nM and 6 nM. Besides, the “Cytotoxicity Potentiation PF50” value in data set [2] worked out at 1.6.

Turning to `O=C1NCCn2c(-c3cccnc3)nc3cccc1c32` [Example 7, 1-Pyridin-3-yl-8,9-dihydro-7H-2,7,9a-triaza-benzo[cd]azulen-6-one], in data set [1] (setting [3]), the Ki came to 5.1 nM. Further, in data set [2], the “Cytotoxicity Potentiation PF50” value turned out to be 1.4.

For `O=C1NCCn2c(-c3cccc4ccccc34)nc3cccc1c32` [Example 9, 1-Naphthalen-1-yl-8,9-dihydro-7H-2,7,9a-triaza-benzo[cd]azulen-6-one], the “Cytotoxicity Potentiation PF50” value in data set [2] stood at 1.4.

As to `O=C1NCCn2c(-c3ccc4ccccc4c3)nc3cccc1c32` [Example 11, 1-Naphthalen-2-yl-8,9-dihydro-7H-2,7,9a-triaza-benzo[cd]azulen-6-one], the Ki in data set [1] (setting [3]) is 5.6 nM. Also, the “Cytotoxicity Potentiation PF50” value in data set [2] amounted to 2.1.

As to `O=C1NCCn2c(O)nc3cccc1c32` [Example 26, 8,9-Dihydro-2H 7H-2,7,9a-triaza-benzo[cd]azulen-1,6-dione], the Ki in data set [1] (setting [3]) amounted to 102 nM. Further, in data set [2], the “Cytotoxicity Potentiation PF50” value came out at 1.1.

For `O=C1NCCn2c(-c3ccc(F)cc3)cc3cccc1c32` [Example 37], in data set [2], the “Cytotoxicity Potentiation PF50” value was 1.8.

Turning to `O=C1NCCn2c(-c3ccc(Cl)cc3)c(/C=N/O)c3cccc1c32` [Example 39, 6-(4-Chloro-phenyl)-1-oxo-1,2,3,4-tetrahydro-[1,4]diazepino[6,7,1-hi]indole-7-carboxaldehyde Oxime], the “Cytotoxicity Potentiation PF50” value in data set [2] is on record as 1.

Consider `O=C1NCCn2cc(/C=N/O)c3cccc1c32` [Example 46, 1-Oxo-1,2,3,4-tetrahydro-[1,4]diazepino[6,7]-hi]indole-7-carbaldehyde Oxime], for which, in data set [2], the “Cytotoxicity Potentiation PF50” value was determined as 1.3.

Turning to `Cc1c(-c2ccc(F)cc2)n2c3c(cccc13)C(=O)NCC2` [Example 50, 6-(4-Fluoro-phenyl)-7-methyl-3,4-dihydro-2H-[1,4]diazepino[6,7,1-hi]indol-1-one], in data set [2], the “Cytotoxicity Potentiation PF50” value is 1.1.

Turning to `CN(C)Cc1ccc(-c2nc3cccc4c3n2CCNC4=O)cc1` [Example 58, 1-(4-Dimethylaminomethyl-phenyl)-8,9-dihydro-7H-2,7,9a-triaza-benzo[cd]azulen-6-one], in data set [1] (setting [3]), the Ki is 5.8 nM. Also, in data set [2], the “Cytotoxicity Potentiation PF50” value is 2.0.

For the compound `CN(C)Cc1ccc(-c2cc3cccc4c3n2CCNC4=O)cc1` [Example 82, 6-(4-Dimethylaminomethyl-phenyl)-3,4-dihydro-2H-[1,4]diazepino[6,7,1-hi]indol-1-one], the Ki in data set [1] (setting [3]) is 6.2 nM and 6.6 nM. The “Cytotoxicity Potentiation PF50” value in data set [2] stood at 1.9.

With `O=C1NCCn2c(-c3ccc(F)cc3)c(/C=N/O)c3cccc1c32` [Example 90, 6-(4-Fluoro-phenyl)-1-oxo-1,2,3,4-tetrahydro-[1,4]diazepino[6,7,1-hi]indole-7-carbaldehyde oxime], the “Cytotoxicity Potentiation PF50” value in data set [2] was 1.2.

`O=C(c1ccccc1)c1cn2c3c(cccc13)C(=O)NCC2` [Example 167, 7-(1-Benzoyl)-3,4-dihydro-2H-[1,4]diazepino[6,7,1-hi]indol-1-one]: the melting point is 229 to 230 °C. In addition, the Ki in data set [1] (setting [3]) was found to be 337 nM.

`O=C1NCCn2cc(/C(=N/O)c3ccccc3)c3cccc1c32` [Example 168, 7-(1-Hydroxyimino-1-phenyl-methyl)-3,4-dihydro-2H-[1,4]diazepino[6,7,1-hi]indol-1-one] returned a melting point of 263 to 265 °C. In addition, the affinity in data set [1] (Inhibition Constant Ki (nM)) corresponds to a Ki of 38 nM.

On to `O=C1NCCn2c(-c3ccc(CN4CC=CC4)cc3)nc3cccc1c32` [Example 171, 1-[4-(2,5-Dihydro-pyrrol-1-ylmethyl)-phenyl]-8,9-dihydro-7H-2,7,9a-triaza-benzo[cd]azulen-6-one], for which, in data set [1] (setting [3]), the Ki was determined as 4.5 nM. Moreover, the “Cytotoxicity Potentiation PF50” value in data set [2] was determined as 2.5.

As to `O=C1NCCn2c(-c3ccc(CN4CC=CC4)cc3)nc3cc(F)cc1c32` [Example 177, 1-[4-(2,5-Dihydro-pyrrol-1-ylmethyl)-phenyl]-4-fluoro-8,9-dihydro-7H-2,7,9a-triaza-benzo[cd]azulen-6-one], in data set [1] (setting [3]), the Ki was 4.1 nM. Besides, the “Cytotoxicity Potentiation PF50” value in data set [2] stood at 2.5.

Turning to `COc1cccc(CCNCc2ccc(-c3nc4cccc5c4n3CCNC5=O)cc2)c1` [Example 184, 1-(4-{[2-(3-Methoxy-phenyl)-ethylamino]-methyl}-phenyl)-2,7,8,9-tetrahydro-2,7,9a-triaza-benzo[cd]azulen-6-one], the Ki in data set [1] (setting [3]) turned out to be 6 nM. Besides, the “Cytotoxicity Potentiation PF50” value in data set [2] amounted to 2.2.

Turning to `COc1ccc(CCNCc2ccc(-c3nc4cccc5c4n3CCNC5=O)cc2)cc1` [Example 186, 1-(4-{[2-(4-Methoxy-phenyl)-ethylamino]-methyl}-phenyl)-2,7,8,9-tetrahydro-2,7,9a-triaza-benzo[cd]azulen-6-one], the inhibitory constant (Ki) in data set [1] (setting [3]) is 5.5 nM. Moreover, in data set [2], the “Cytotoxicity Potentiation PF50” value is on record as 2.2.

Take `O=C1NCCn2c(-c3ccc(CNC4Cc5ccccc5C4)cc3)nc3cccc1c32` [Example 197, 1-[4-(Indan-2-ylaminomethyl)-phenyl]-8,9-dihydro-7H-2,7,9a-triaza-benzo[cd]azulen-6-one]: in data set [1] (setting [3]), the Ki was 2.8 nM and 5.2 nM. The “Cytotoxicity Potentiation PF50” value in data set [2] was found to be 2.5.

On to `CCN(CCc1ccccn1)Cc1ccc(-c2nc3cccc4c3n2CCNC4=O)cc1` [Example 203, 1-(4-{[Ethyl-(2-pyridin-2-yl-ethyl)-amino]-methyl}-phenyl)-8,9-dihydro-7H-2,7,9a-triaza-benzo[cd]azulen-6-one], for which the Ki in data set [1] (setting [3]) turned out to be 4.6 nM. The “Cytotoxicity Potentiation PF50” value in data set [2] was 2.0.

`CN(CCc1cc2ccccc2[nH]1)Cc1ccc(-c2nc3cccc4c3n2CCNC4=O)cc1` [Example 207, 1-[4-({[2-(1H-Indol-2-yl)-ethyl]-methyl-amino}-methyl)-phenyl]-8,9-dihydro-7H-2,7,9a-triaza-benzo[cd]azulen-6-one]: the Ki in data set [1] (setting [3]) was 4.2 nM. Further, in data set [2], the “Cytotoxicity Potentiation PF50” value is listed as 2.4.

Turning to `O=C1NCCn2c(-c3ccc(CN4CCCC4)cc3)nc3cccc1c32` [Example 210, 1-(4-Pyrrolidin-1-ylmethyl-phenyl)-8,9-dihydro-7H-2,7,9a-triaza-benzo[cd]azulen-6-one], the Ki in data set [1] (setting [3]) amounted to 5 nM. In data set [2], the “Cytotoxicity Potentiation PF50” value is listed as 2.3.

Consider `O=C1NCCn2c(-c3ccc(CN4CCCC4)cc3)nc3cc(F)cc1c32` [Example 211, 4-Fluoro-1-(4-pyrrolidin-1-ylmethyl-phenyl)-8,9-dihydro-7H-2,7,9a-triaza-benzo[cd]azulen-6-one], for which the inhibition constant Ki in data set [1] (setting [3]) was determined as 4.5 nM. Also, the “Cytotoxicity Potentiation PF50” value in data set [2] came to 2.3.

Consider `CC1CCCN1Cc1ccc(-c2nc3cccc4c3n2CCNC4=O)cc1` (stereo not drawn) [Example 212, 1-[4-(2-Methyl-pyrrolidin-1-ylmethyl)-phenyl]-8,9-dihydro-7H-2,7,9a-triaza-benzo[cd]azulen-6-one], for which the Ki in data set [1] (setting [3]) is 6.8 nM. Besides, the “Cytotoxicity Potentiation PF50” value in data set [2] stood at 2.0.

For the compound `C[C@H]1Cn2c(-c3ccc(CN4CC=CC4)cc3)nc3cccc(c32)C(=O)N1` [Example 223, (S)-1-[4-(2,5-Dihydro-pyrrol-1-ylmethyl)-phenyl]-8-methyl-8,9-dihydro-7H-2,7,9a-triaza-benzo[cd]azulen-6-one], the Ki in data set [1] (setting [3]) was 8.5 nM. Also, the “Cytotoxicity Potentiation PF50” value in data set [2] is reported as 2.1.

Turning to `C[C@H]1Cn2c(-c3ccc(CN4CCCC4)cc3)nc3cccc(c32)C(=O)N1` [Example 233, (S)-8-Methyl-1-(4-pyrrolidin-1-ylmethyl-phenyl)-8,9-dihydro-7H-2,7,9a-triaza-benzo[cd]azulen-6-one], the Ki in data set [1] (setting [3]) was determined as 8 nM. Moreover, the “Cytotoxicity Potentiation PF50” value in data set [2] was 2.2.

As to `C[C@H]1Cn2c(-c3ccc(Cl)cc3)nc3cccc(c32)C(=O)N1` [Example 235, (S)-1-(4-Chloro-phenyl)-8-methyl-8,9-dihydro-7H-2,7,9a-triaza-benzo[cd]azulen-6-one], the melting point lay in the range of 244 to 246 °C. For the same compound, the Ki in data set [1] (setting [3]) came out at 5.4 nM.

As usually defined, the Ki is the equilibrium dissociation constant of an inhibitor or competing ligand from its target. Broadly, the melting point is the temperature of the solid-liquid transition.

These data come from patent publication US6548494B1, “Tricyclic inhibitors of poly(ADP-ribose) polymerases” (Agouron Pharmaceuticals, Inc., priority 1999, dated 2003).
